{
  "source": "patent US20170015979A1",
  "about": "(Instituto Tecnológico y de Estudios Superiores de Monterrey, priority 2015, published 2017)",
  "key": {"[1]": {"test_system": "N. benthamiana leaf explants", "assay": "Killing curve for tobacco leaf explants", "assay_type": "cell-based", "conditions": "for explants exhibiting necrosis: 200 μg/mL, after 7 days, MS solid medium; for shoot induction observed (share of plates): after 30 days", "description": "FIG. 6. Doxycycline killing curve for N. benthamiana leaf explants."}, "[2]": {"test_system": "Jalapeño hypocotyl, epicotyl and shoot tip tissues", "assay": "Sensitivity of Jalapeño explants", "assay_type": "cell-based", "conditions": "200 μg/mL; initially evaluated after 15 days"}, "Kluyvermyces lactis": {"test_system": "Kluyvermyces lactis", "assay": "Yeast sensitivity on YPGE agar", "assay_type": "cell-based", "description": "(§1) Example 4. […] From a single overnight grown colony of each yeast strain, 25 mL of yeast extract-peptone-dextrose (YPD) broth were inoculated and grown for 16 hours at 30° C. and 150 rpm."}, "Kluyveromyces marxianus": {"test_system": "Kluyveromyces marxianus", "assay": "Yeast sensitivity on YPGE agar", "assay_type": "cell-based", "description": "as §1"}, "Pichia pastoris": {"test_system": "Pichia pastoris", "assay": "Yeast sensitivity on YPGE agar", "assay_type": "cell-based", "conditions": "10^6 cells plated", "description": "as §1"}, "[3]": {"test_system": "Saccharomyces cerevisiae ATCC 44774", "assay": "Yeast sensitivity on YPGE agar", "assay_type": "cell-based", "description": "as §1"}, "[4]": {"test_system": "C. reinhardtii strain CC-849", "protocol": "Glass bead transformation C. reinhardtii strain CC-849 was transformed with supercoiled plasmid DNA of Atetx, Btetx, pKS-aphVIII or pSP124S (Table 4) by the glass bead method. Briefly, the algae were grown at 25° C. with a 18/6 (light/dark) photoperiod in TAP media to mid-log phase (1-2×10^6 cells/mL), the cells were harvested by centrifugation 5 min. at 5000 g, the growth medium was removed and fresh TAP was added to achieve a cell concentration of 2×10^8 cells/mL. 300 μL of the cell suspension were placed in a 1.5 mL centrifuge tube containing 0.3 g of sterile 0.4-0.6 mm diameter glass beads (Sigma, St. Louis, Mo.) and 1×10^−12 mols of the desired plasmid DNA. The cell/DNA/glass bead suspensions were vortexed 15 s at maximum power in a VWR mini vortex. The cells were transferred to a glass tube with 5 mL of fresh TAP media and incubated at 25° C. overnight with a 8/6 (light/dark) photoperiod. After 14 hours the cells were concentrated by centrifugation at 5,000 g for 15 minutes and resuspended in TAP media to yield either 3×10^7 cells/mL of pKS-aphVIII and pSP124S transformants and 2.5×10^6, 5×10^6, 1×10^7 or 3×10^7 cells/mL for tetx transformants. […] When colonies appeared, they were streaked on to selective TAP agar plates.\nC. reinhardtii strain CC-849 was transformed with supercoiled plasmid DNA of AtetX and BtetX, by the glass bead method. […]"}, "[5]": {"conditions": "10^5 cells plated, 2 days of incubation"}},
  "note": "Several values for one entry are separate records, joined by “and”; a condition that tells them apart may be missing. Equal entries are not always repeated. Where two headings read alike, the source gives them in different places.",
  "data": [
    {"smiles": "C[C@H]1c2cccc(O)c2C(=O)C2=C(O)[C@]3(O)C(=O)C(C(N)=O)=C(O)[C@@H](N(C)C)[C@@H]3[C@@H](O)[C@@H]21", "note": "[doxycycline]", "values": [
      {"measurement": "explants exhibiting necrosis", "setting": "[1]", "result": 100, "unit": "%"},
      {"measurement": "explants exhibiting necrosis", "setting": "[2]", "result": 100, "unit": "%"},
      {"measurement": "concentration at which growth was inhibited", "setting": "Kluyvermyces lactis; 10^6 cells plated", "result": "675 µg/mL and 1000 µg/mL"},
      {"measurement": "concentration at which growth was inhibited", "setting": "Kluyvermyces lactis; 10^7 cells plated", "result": 1000, "unit": "µg/mL"},
      {"measurement": "concentration at which growth was inhibited", "setting": "Kluyveromyces marxianus; 10^6 cells plated", "result": "675 µg/mL and 1000 µg/mL"},
      {"measurement": "concentration at which growth was inhibited", "setting": "Kluyveromyces marxianus; 10^7 cells plated", "result": 1000, "unit": "µg/mL"},
      {"measurement": "concentration at which growth was inhibited", "setting": "Pichia pastoris", "result": 1000, "unit": "µg/mL"},
      {"measurement": "concentration at which growth was inhibited", "setting": "[3]; 10^5 cells plated", "result": 1000, "unit": "µg/mL"},
      {"measurement": "concentration at which growth was inhibited", "setting": "[3]; 10^7 cells plated", "result": 1000, "unit": "µg/mL"}
    ]},
    {"smiles": "CN(C)[C@@H]1C(O)=C(C(N)=O)C(=O)[C@@]2(O)C(O)=C3C(=O)c4c(O)cccc4[C@@](C)(O)[C@H]3C[C@@H]12", "note": "[tetracycline, Tetracycline]", "values": [
      {"measurement": "shoot induction observed (share of plates)", "setting": "[1]; 15 μg/mL", "result": 50, "unit": "%"},
      {"measurement": "shoot induction observed (share of plates)", "setting": "[1]; 25 μg/mL", "result": 50, "unit": "%"},
      {"measurement": "explants exhibiting necrosis", "setting": "[1]", "result": 100, "unit": "%"},
      {"measurement": "explants exhibiting necrosis", "setting": "[2]", "result": 100, "unit": "%"},
      {"measurement": "concentration at which growth was inhibited", "setting": "Kluyvermyces lactis; [5]", "result": "750 µg/mL and 1000 µg/mL"},
      {"measurement": "concentration at which growth was inhibited", "setting": "Kluyveromyces marxianus; [5]", "result": "350 to 1000", "unit": "µg/mL"},
      {"measurement": "concentration at which growth was inhibited", "setting": "Kluyveromyces marxianus; 10^6 cells plated", "result": 1000, "unit": "µg/mL"},
      {"measurement": "concentration at which growth was inhibited", "setting": "[3]; 2 days of incubation, cell number not clearly stated", "result": "500 µg/mL and 750 µg/mL and 1000 µg/mL"},
      {"measurement": "decrease of number of positive colonies compared to 15 μg/mL", "setting": "[4]; tetracycline 25 μg/mL for selection of primary transformants", "result": "approximately 75%"},
      {"measurement": "decrease of number of positive colonies compared to 15 μg/mL", "setting": "[4]; tetracycline 50 μg/mL for selection of primary transformants", "result": "approximately 75%"}
    ]}
  ]
}
